In patent publication US20230405001A1, “TREATMENT OR PREVENTION OF HIV INFECTION” (Janssen Sciences Ireland Unlimited Company, priority 2020, published 2023):

Experiments:
[1] = Plasma kinetics in minipigs over 6 months after single subcutaneous dosing, sequential, admixed or control (Example 2); assay type: in vivo; conditions: minipig, sc, 1830 mg; for AUC(0-t): single s.c. about 1800 mg/6 mL
Procedure: Nine minipigs with body weights ranging from 17 to 21 kg at the start of the study were used. The minipigs were fasted overnight before dosing. The minipigs were anaesthetized with propofol before dosing. Three minipigs were dosed subcutaneously in the loin with 0.44 mL of the hyaluronidase solution (10,000 U/mL) followed by 1818 mg/6.06 mL of the rilpivirine nanosuspension at the same injection site (treatment group A—sequential).
Three minipigs were dosed subcutaneously in the loin with the 1816 mg/6.5 mL admixed hyaluronidase solution (10,000 U/mL)+rilpivirine suspension (treatment group B— admixed). Three minipigs were dosed subcutaneously in the loin with the 1830 mg/6.1 mL of the control rilpivirine suspension (treatment group C—control). Vetbond 3M surgical sealant was used to seal the injection site to limit any leakage if necessary.
The control rilpivirine suspension was prepared and administered by the following method. • 1. Mix rilpivirine by horizontally shaking the container 30 times over approximately 25 cm within approximately 10 s (a back and forth arm movement=2 times). Ensure well mixed/fully re-suspended. • 2. Flip-off rilpivirine vial flip cap and wipe with isopropyl alcohol wipe. Allow to dry. • 3. Repeat steps 1-2 with a 2nd vial of rilpivirine. If there is a low draw, or unexpected amount of air/settling after draw, a 3rd vial may need to be prepared to ensure the proper dose level can be filled into the syringe. • 4. Attach 18 G transfer needle to 10 mL syringe. • 5. Invert vial and draw>3.2 mL into 10 mL syringe (or as much as can be removed from vial). Injecting 1-2 mL of air will facilitate draw. • Repeat step 5 with the 2nd vial so that at approximately 6.5 mL of drug product is in the 10 mL syringe. Important: see note in (step 3) about preparing a 3rd vial in case of low volume draw. • 6. Detach needle and attach a syringe cap to 10 mL syringe • 7. Wait 5 minutes for bubbles to settle with syringe inverted. • 8. Remove syringe cap, invert syringe prime off air. • 9. Attach a winged infusion set. • 10. Set dose at 6.1 mL after filling infusion set line until liquid forms at tip of needle (0.44 mL undeliverable/dead volume will be in infusion set). • 11. Insert the winged infusion set into the subcutaneous tissue of the target injection site by pinching the skin and inserting the needle at a 30-45 degree angle. • 12. Release the pinch. • 13. Inject over 2 minutes at a constant rate until the syringe plunger bottoms out • 14. Remove the winged infusion set and dispose. • 15. Record any site leakage.
The sequential administration of hyaluronidase solution and then rilpivirine suspension was performed according to the following method. • 1. Flip-off rHuPH20 solution vial flip cap and wipe with isopropyl alcohol wipe. Swirl vial. Allow vial stopper to dry. […]

[2] = Plasma kinetics in minipigs after single subcutaneous dosing, rilpivirine suspension with or without rHuPH20 (Example 1); assay type: in vivo; conditions: minipig
Procedure: Six minipigs with body weights ranging from 20 to 25 kg at the start of the study were used. The minipigs were fasted overnight before dosing. Three minipigs were dosed subcutaneously in the loin with 0.19 mL of the hyaluronidase solution (10,000 U/mL) followed by 900 mg/3 mL of the rilpivirine nanosuspension at the same injection site (treatment group A). Three minipigs were dosed subcutaneously in the loin with the 900 mg/3 mL of the control rilpivirine suspension (treatment group B—control). The injection volume was 3 mL rilpivirine suspension in both treatment groups. Method—Sequential Administration • 1. Flip-off rHuPH20 solution vial flip cap and wipe with isopropyl alcohol wipe. Allow to dry. Attach an 18 G transfer needle to a 1 mL syringe. • 2. Draw 0.35 mL into the syringe. • 3. Prime the syringe and set liquid level to 0.25 mL in the syringe. • 4. Remove transfer needle and attach syringe cap to 1 mL syringe. • 5. Mix rilpivirine by horizontally shaking the container 30 times over […] approximately 10 s (a back and forth arm movement=2 times). Ensure well mixed/fully re-suspended. • 6. Flip-off rilpivirine vial flip cap and wipe with isopropyl alcohol wipe. Allow to dry. • 7. Attach 18 G transfer needle to 5 mL syringe. • 8. Invert vial and draw>3.2 mL into 5 mL syringe mL (or as much as can be removed from vial). Injecting 1-2 mL of air will facilitate draw. • 9. Detach needle and attach a syringe cap to 5 mL syringe • 10. Invert syringe. Wait 5 minutes for bubbles to settle. • 11. Attach a winged infusion set to the rHuPH20 1 mL syringe. Invert syringe and prime off air so that liquid forms at the tip of the needle. (0.19 mL of rHuPH20 should be in the line) • 12. Insert the winged infusion set into the subcutaneous tissue of the target injection site by pinching the skin and inserting the needle at a 30-45 degree angle. • 13. Release the pinch. • 14. UNSCREW rHuPH20 syringe from infusion set maintaining the needle in the skin. […] It is advisable to have this syringe prepared while the technician is inserting the rHuPH20 infusion line. • 15. Remove the syringe cap from the 5 mL syringe with rilpivirine. Remove air and set the dose at 3.2 mL. • 16. Attach rilpivirine filled syringe to the open end of the infusion set. • 17. […] Plasma samples were analysed individually by means of a validated LC-MS/MS method. Pharmacokinetic Data Analysis • The pharmacokinetic profile of the blood plasma samples was evaluated using non-compartmental pharmacokinetic analysis (using individual Cp vs time profiles). Mean plasma concentrations and PK parameters (Cmax, Tmax, t1/2 and AUC values) were measured and the results are provided in Table 1.

Cmax ([1]; control group C, single animal, at 7 hours post-administration, read-out: Cmax of the excluded outlier minipig): 563 ng/mL
Cmax ([1]; single s.c. about 1800 mg/6 mL rilpivirine nanosuspension, N=3, control value excludes an outlier minipig, read-out: Mean Cmax): 49 ng/mL
AUC(0-t) ([1]; N=3, read-out: Mean AUC0-1 months): 22000 ng·h/mL
AUC(0-t) ([1]; N=3, read-out: Mean AUC0-6 months): 78300 ng·h/mL
λz ([2]; single s.c. 900 mg/3 mL, N=3): 0.0009 ± 0.00009 h⁻¹
Tlast ([2]; single s.c. 900 mg/3 mL, median, N=3): 2160 h
AUC(0-t) ([2]; plasma, sc, single s.c. 900 mg/3 mL, N=3): 22300 ± 2930 ng·h/mL
Cmax ([2]; plasma, sc, single s.c. dose in the loin, 900 mg/3 mL rilpivirine suspension, N=3, mean ± SD): 28.5 ± 9.56 ng/mL
Compound: Cc1cc(/C=C/C#N)cc(C)c1Nc1ccnc(Nc2ccc(C#N)cc2)n1 [Rilpivirine, 4-[[4-[[4-[(1E)-2-cyanoethenyl]-2,6-dimethylphenyl]amino]-2-pyrimidinyl]amino]benzonitrile]
